From ChEMBL document CHEMBL1158950, “New Sesquiterpenes from Xanthium catharticum” (J Nat Prod, 1991)
Active and inactive are the calls of the source. No cut-off for these calls is given here.

How the values were obtained:
[1] = system: Bacillus subtilis; assay: Antimicrobial activity against Bacillus subtilis; format: functional, organism-based
[2] = system: Staphylococcus aureus; assay: Antimicrobial activity against Staphylococcus aureus; format: functional, organism-based
[3] = system: Artemia salina; assay: Toxicity in Artemia salina; format: organism-based; conditions: in vivo
[4] = system: Agrobacterium tumefaciens; assay: Antitumor activity against Agrobacterium tumefaciens-induced crown gall tumor by potato disk assay; format: functional

Compound | Activity [1] | Activity [2] | LC50 [3] [ppm] | inhibition (INH) [4] [%]
CC(=O)/C=C/C1=CC[C@@H]2[C@H](C)C(=O)O[C@@H]2C[C@@H]1C | inactive | inactive |  | 
C=C1C(=O)O[C@@H]2CC(=C)[C@@H]3CC=C(C)[C@@H]3C[C@H]12 [GUAIANOLIDE ZINIOLIDE] |  |  | 14 | 49
